Experimental findings from US10301284B2, “Therapeutic inhibitory compounds” (LifeSci Pharmaceuticals, Inc., priority 2016, dated 2019) are described below.

pEC50, pIC50: −log10 of the molar value. Bounds are passed on as bounds.

The target in one test is T1, human Plasma Kallikrein (Homo sapiens (Human), UniProt P03952). Description: In vitro enzyme inhibition of human plasma kallikrein (Pro-Phe-Arg-AMC cleavage).
T1 sequence (P03952 391-638 limits assumed): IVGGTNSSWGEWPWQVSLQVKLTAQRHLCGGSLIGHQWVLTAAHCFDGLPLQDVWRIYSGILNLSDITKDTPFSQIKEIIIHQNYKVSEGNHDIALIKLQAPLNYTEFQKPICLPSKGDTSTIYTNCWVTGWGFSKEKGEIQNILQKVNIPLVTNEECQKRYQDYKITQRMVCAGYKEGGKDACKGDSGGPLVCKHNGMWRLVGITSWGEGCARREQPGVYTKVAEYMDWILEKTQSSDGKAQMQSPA
T1 sequence (P03952 20-390 partner limits assumed): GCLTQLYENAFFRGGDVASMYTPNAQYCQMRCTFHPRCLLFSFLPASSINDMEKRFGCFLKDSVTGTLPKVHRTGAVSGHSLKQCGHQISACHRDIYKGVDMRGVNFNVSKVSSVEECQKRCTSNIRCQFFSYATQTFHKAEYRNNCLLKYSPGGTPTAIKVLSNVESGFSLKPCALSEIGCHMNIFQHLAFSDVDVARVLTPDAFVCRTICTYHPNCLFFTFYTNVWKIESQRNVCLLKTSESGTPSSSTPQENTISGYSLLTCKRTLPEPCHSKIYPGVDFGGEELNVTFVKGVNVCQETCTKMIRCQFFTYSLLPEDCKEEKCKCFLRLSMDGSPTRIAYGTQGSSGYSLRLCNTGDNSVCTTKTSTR
Settings: not given
Format: biochemical. The protocol: (§1) The ability of the compounds disclosed herein to inhibit human plasma kallikrein activity was quantified according to the procedures below.
A 10 mM solution of the test compound was made in DMSO. This solution was serially diluted 1:5 in DMSO to yield 2000, 400, 80, 16, 3.2, 0.64, 0.128, 0.0256 and 0.00512 μM compound test solutions. A control tube containing only DMSO is included. 16 μL of each compound test solution was combined with 384 μL of assay buffer (50 mM Tris-HCl pH 7.5, 150 mM NaCl, 0.01% Triton X-100) to yield a “4× test compound buffer stock”.
Separately, a 40 nM solution of human Plasma Kallikrein (Abcam) and a 93.6 μM solution Pro-Phe-Arg-AMC (Bachem) were made using assay buffer. These solutions are hereby referred to as 4×hPK and 2×PFR-AMC, respectively.
60 μL of each 4× test compound buffer stock was combined with 60 μL of 4×hPK to yield 120 μL of “2× test compound buffer stock/2×hPK”. 50 μL was removed from this mixture and placed into duplicate wells on a Microfluor 1Black U-bottom microtiter plate (Thermo Scientific). This plate was incubated for 5 minutes at 37° C. To each well, 50 μL of pre-warmed 2×PFR-AMC was added to start the enzymatic reaction. Cleavage of PFR-AMC was monitored in a Biotek Synergy H4 reader set at 37° C. Readings are taken every 43 seconds for 1 hour. The highest mean velocity over 20 reads (˜15 minutes) is used to calculate the IC50. The IC50 is calculated using the Gen5 (Biotek Instruments).
The ability of the compounds listed in Table 2 to inhibit human plasma kallikrein activity was determined.
The pIC50 is the IC50 on a negative log10 scale, so that one unit is a factor of ten. On to `Cc1cc(N)nc(C)c1CNC(=O)c1nn(Cc2ccc3ncc(Cl)cc3c2)c2ccnc(Cl)c12` [Example 119, N-((6-amino-2,4-dimethylpyridin-3-yl)methyl)-4-chloro-1-((3-chloroquinolin-6-yl)methyl)-1H-pyrazolo[4,3-c]pyridine-3-carboxamide], for which the pIC50 is 6.00 to 7.00.

As for `COc1ccc2c(n1)c(C(=O)NCc1c(C)cc(N)nc1C)cn2Cc1ccc2ncc(Cl)cc2c1` [Example 128, N-((6-amino-2,4-dimethylpyridin-3-yl)methyl)-1-((3-chloroquinolin-6-yl)methyl)-5-methoxy-1H-pyrrolo[3,2-b]pyridine-3-carboxamide], the pIC50 is 5.00 to 6.00.

With `COc1ncnc2c1c(C(=O)NCc1c(C)cc(N)nc1C)cn2Cc1ccc2ncc(Cl)cc2c1` [Example 131, N-((6-amino-2,4-dimethylpyridin-3-yl)methyl)-7-((3-chloroquinolin-6-yl)methyl)-4-methoxy-7H-pyrrolo[2,3-d]pyrimidine-5-carboxamide], the pIC50 was 6.00 to 7.00.

On to `Cc1cc(N)nc(C)c1CNC(=O)c1cn(Cc2ccc3ncc(Cl)cc3c2)c2ncc(C#N)cc12` [Example 135, N-((6-amino-2,4-dimethylpyridin-3-yl)methyl)-1-((3-chloroquinolin-6-yl)methyl)-5-cyano-1H-pyrrolo[2,3-b]pyridine-3-carboxamide], for which the pIC50 is 6.00 to 7.00.

For `Cc1cc(N)nc(C)c1CNC(=O)c1cn(Cc2ccc3ncc(Cl)cc3c2)c2ncnc(C#N)c12` [Example 136, N-((6-amino-2,4-dimethylpyridin-3-yl)methyl)-7-((3-chloroquinolin-6-yl)methyl)-4-cyano-7H-pyrrolo[2,3-d]pyrimidine-5-carboxamide], the pIC50 is 6.00 to 7.00.

`COc1ccc2c(n1)c(C(=O)NCc1c(C)cc(N)nc1C)nn2Cc1ccc2ncc(Cl)cc2c1` [Example 137, N-((6-amino-2,4-dimethylpyridin-3-yl)methyl)-1-((3-chloroquinolin-6-yl)methyl)-5-methoxy-1H-pyrazolo[4,3-b]pyridine-3-carboxamide]: the pIC50 is 6.00 to 7.00.

Still in this test, the particulars now being: human plasma kallikrein, PFR-AMC substrate, 37° C.; read-out: hPK IC50.
Take `Cc1cc(N)nc(C)c1CNC(=O)c1cn(Cc2ccc3ncc(Cl)cc3c2)c(C#N)n1` [Example 113, N-((6-amino-2,4-dimethylpyridin-3-yl)methyl)-1-((3-chloroquinolin-6-yl)methyl)-2-cyano-1H-imidazole-4-carboxamide]: the pIC50 was 6.00 to 7.00.

Take `Cc1cc(N)nc(C)c1CNC(=O)c1cn(Cc2ccc3ncc(Cl)cc3c2)c2cnc(Cl)cc12` [Example 117, N-((6-amino-2,4-dimethylpyridin-3-yl)methyl)-5-chloro-1-((3-chloroquinolin-6-yl)methyl)-1H-pyrrolo[2,3-c]pyridine-3-carboxamide]: the pIC50 was over 7.00.

On to `Cc1cc(N)nc(C)c1CNC(=O)c1cn(Cc2ccc3ncc(Cl)cc3c2)c2cc[nH]c(=O)c12` [Example 118, N-((6-amino-2,4-dimethylpyridin-3-yl)methyl)-1-((3-chloroquinolin-6-yl)methyl)-4-oxo-4,5-dihydro-1H-pyrrolo[3,2-c]pyridine-3-carboxamide], for which the pIC50 was under 5.00.

For the compound `Cc1cc(N)nc(C)c1CNC(=O)c1nn(Cc2ccc3ncc(Cl)cc3c2)c2cc[nH]c(=O)c12` [Example 120, N-((6-amino-2,4-dimethylpyridin-3-yl)methyl)-1-((3-chloroquinolin-6-yl)methyl)-4-oxo-4,5-dihydro-1H-pyrazolo[4,3-c]pyridine-3-carboxamide], the pIC50 is 5.00 to 6.00.

On to `COc1cc2c(C(=O)NCc3c(C)cc(N)nc3C)cn(Cc3ccc4ncc(Cl)cc4c3)c2cn1` [Example 121, N-((6-amino-2,4-dimethylpyridin-3-yl)methyl)-1-((3-chloroquinolin-6-yl)methyl)-5-methoxy-1H-pyrrolo[2,3-c]pyridine-3-carboxamide], for which the pIC50 is over 7.00.

For `Cc1cc(N)nc(C)c1CNC(=O)c1nn(Cc2ccc3ncc(Cl)cc3c2)c2c[nH]c(=O)cc12` [Example 124, N-((6-amino-2,4-dimethylpyridin-3-yl)methyl)-1-((3-chloroquinolin-6-yl)methyl)-5-oxo-5,6-dihydro-1H-pyrazolo[3,4-c]pyridine-3-carboxamide], the pIC50 was 6.00 to 7.00.

In the case of `Cc1nc(N)ccc1CNC(=O)c1cn(Cc2ccc3ncc(Cl)cc3c2)c2ccc(=O)[nH]c12` [Example 125, N-((6-amino-2-methylpyridin-3-yl)methyl)-1-((3-chloroquinolin-6-yl)methyl)-5-oxo-4,5-dihydro-1H-pyrrolo[3,2-b]pyridine-3-carboxamide], the pIC50 is over 7.00.

For the compound `Cc1cc(N)nc(C)c1CNC(=O)c1cn(Cc2ccc3ncc(Cl)cc3c2)c2ccc(=O)[nH]c12` [Example 126, N-((6-amino-2,4-dimethylpyridin-3-yl)methyl)-1-((3-chloroquinolin-6-yl)methyl)-5-oxo-4,5-dihydro-1H-pyrrolo[3,2-b]pyridine-3-carboxamide], the pIC50 is over 7.00.

Take `Cc1cc(N)nc(C)c1CNC(=O)c1nn(Cc2ccc3ncc(Cl)cc3c2)c2cnc(C#N)cc12` [Example 130, N-((6-amino-2,4-dimethylpyridin-3-yl)methyl)-1-((3-chloroquinolin-6-yl)methyl)-5-cyano-1H-pyrazolo[3,4-c]pyridine-3-carboxamide]: the pIC50 was over 7.00.

For `Cc1cc(N)nc(C)c1CNC(=O)c1cn(Cc2ccc3ncc(Cl)cc3c2)c2nc[nH]c(=O)c12` [Example 132, N-((6-amino-2,4-dimethylpyridin-3-yl)methyl)-7-((3-chloroquinolin-6-yl)methyl)-4-oxo-4,7-dihydro-3H-pyrrolo[2,3-d]pyrimidine-5-carboxamide], the pIC50 is under 5.00.

In the case of `Cc1cc(N)nc(C)c1CNC(=O)c1cn(Cc2ccc3ncc(Cl)cc3c2)c2ccnc(C#N)c12` [Example 133, N-((6-amino-2,4-dimethylpyridin-3-yl)methyl)-1-((3-chloroquinolin-6-yl)methyl)-4-cyano-1H-pyrrolo[3,2-c]pyridine-3-carboxamide], the pIC50 was over 7.00.

Take `Cc1cc(N)nc(C)c1CNC(=O)c1c2c(N)cccc2nn1Cc1ccc2ncc(Cl)cc2c1` [Example 140, 4-amino-N-((6-amino-2,4-dimethylpyridin-3-yl)methyl)-2-((3-chloroquinolin-6-yl)methyl)-2H-indazole-3-carboxamide]: the pIC50 is under 5.00.

With `Cc1cc(N)nc(C)c1CNC(=O)c1c(C(F)(F)F)nnn1Cc1ccc2ncc(Cl)cc2c1` [Example 141, N-((6-amino-2,4-dimethylpyridin-3-yl)methyl)-1-((3-chloroquinolin-6-yl)methyl)-4-(trifluoromethyl)-1H-1,2,3-triazole-5-carboxamide], the pIC50 is under 5.00.

For `CCOC(=O)c1nc(C(=O)NCc2c(C)cc(N)nc2C)nn1Cc1ccc2ncc(Cl)cc2c1` [Example 142, ethyl 3-(((6-amino-2,4-dimethylpyridin-3-yl)methyl)carbamoyl)-1-((3-chloroquinolin-6-yl)methyl)-1H-1,2,4-triazole-5-carboxylate], the pIC50 is under 5.00.

Regarding “N-((6-amino-2,4-dimethylpyridin-3-yl)methyl)-1-((3-chloroquinolin-6-yl)methyl)-3-cyano-1H-1,2,4-triazole-5-carboxamide [Example 107]”, the pIC50 was 6.00 to 7.00.

For the next test, the target named is T1, human Plasma Kallikrein. Description: Human whole blood kallikrein inhibition (ellagic acid-activated human plasma, Z-FR-2-AMC substrate). Conditions: human plasma activated with ellagic acid, Z-FR-2-AMC 40 μM, 37° C.; read-out: HWB EC50. Format: biochemical. The protocol: as §1
All dilutions were prepared in an assay buffer comprising 50 mM Tris-HCl pH 7.2, 150 mM NaCl, and 0.01% Triton X-100.
Human plasma was thawed on ice and centrifuged for 15 min at 4° C. to remove platelets. A 1 mM stock solution of ellagic acid was diluted to 8 μM and mixed with human plasma, after removing platelets, at a ratio of 1:0.8. The mixture of human plasma and ellagic acid was further diluted 32-fold in the assay buffer, to yield the final mixture for use in the inhibition assay.
A 22.5 μL volume of the final mixture of human plasma and ellagic acid was added to a 96-well microwell plate and the plate was incubated for 15 min at 37° C.
The test compound solution was prepared to provide final concentrations of 20 μM, 5 μM, 1.25 μM, 312.5 nM, 78.125 nM, 19.531 nM, 4.883 nM, 1.221 nM, 0.305 nM, and 0.076 nM. Each test compound concentration was tested in duplicates.
In addition to the inhibitor control and test wells, the 96 well assay plate included positive control wells which contain the mixture of human plasma and ellagic acid without test compounds, and background wells which contain neither the mixture of human plasma and ellagic acid nor the test compounds. The total volume of liquid in positive control and background wells was brought up to 35 μL using the assay buffer.
The assay plate containing test compounds mixed with human plasma and ellagic acid and appropriate controls was incubated at 37° C. for 5 min. A 10 mM stock solution of substrate Z-FR-2-AMC was diluted to 133.2 μM in the assay buffer, and 15 μL of the diluted substrate was added to each well, to yield a final substrate concentration of 40 μM in each well. The reagents were mixed by shaking the plate gently for 30 sec.
The enzyme reaction was quantified by immediate kinetic reading of the assay plate using excitation/emission wavelengths of 330 nm/440 nm respectively. Fluorescence intensity was recorded for 60 min, using a time interval of 43 sec.
The inhibition activity of the test compounds were evaluated using the IC50 values, calculated according to the dose-response curve of the test compounds, fitted using the “log(inhibitor)−response(variable slope)” equation in GraphPadPrism software (GraphPad Software, Inc.).
The percentage inhibition (EC50) was calculated using the following equation:
[formula] where, Mean(BG) is the average value of the fluorescence intensity of the background wells and Mean(PC) is the average value of the fluorescence intensity of the positive control wells.
What is called pEC50 is the EC50 on a negative log10 scale, so that one unit is a factor of ten. In the case of `Cc1nc(N)ccc1CNC(=O)c1cn(Cc2ccc3ncc(Cl)cc3c2)c2ccc(=O)[nH]c12` [Example 125, N-((6-amino-2-methylpyridin-3-yl)methyl)-1-((3-chloroquinolin-6-yl)methyl)-5-oxo-4,5-dihydro-1H-pyrrolo[3,2-b]pyridine-3-carboxamide], the pEC50 is over 7.00.

In the case of `Cc1cc(N)nc(C)c1CNC(=O)c1cn(Cc2ccc3ncc(Cl)cc3c2)c2ccc(=O)[nH]c12` [Example 126, N-((6-amino-2,4-dimethylpyridin-3-yl)methyl)-1-((3-chloroquinolin-6-yl)methyl)-5-oxo-4,5-dihydro-1H-pyrrolo[3,2-b]pyridine-3-carboxamide], the pEC50 was over 7.00.
